Source: patent US8106091B2, “Inhibitors of IKK-beta serine-threonine protein kinase” (Chroma Therapeutics Ltd., priority 2006, dated 2012)

How the values were obtained:
[1] = molecular target: T1, IKBKB (IKKβ) (Homo sapiens, UniProt O14920); assay: IKKβ enzyme assay (Z'-LYTE, Invitrogen); type: biochemical; settings: ATP at or close to Km; read-out: Inhibitor activity versus IKKβ
T1 construct: purchased Invitrogen (Paisley, UK)
T1 sequence (O14920 1-756): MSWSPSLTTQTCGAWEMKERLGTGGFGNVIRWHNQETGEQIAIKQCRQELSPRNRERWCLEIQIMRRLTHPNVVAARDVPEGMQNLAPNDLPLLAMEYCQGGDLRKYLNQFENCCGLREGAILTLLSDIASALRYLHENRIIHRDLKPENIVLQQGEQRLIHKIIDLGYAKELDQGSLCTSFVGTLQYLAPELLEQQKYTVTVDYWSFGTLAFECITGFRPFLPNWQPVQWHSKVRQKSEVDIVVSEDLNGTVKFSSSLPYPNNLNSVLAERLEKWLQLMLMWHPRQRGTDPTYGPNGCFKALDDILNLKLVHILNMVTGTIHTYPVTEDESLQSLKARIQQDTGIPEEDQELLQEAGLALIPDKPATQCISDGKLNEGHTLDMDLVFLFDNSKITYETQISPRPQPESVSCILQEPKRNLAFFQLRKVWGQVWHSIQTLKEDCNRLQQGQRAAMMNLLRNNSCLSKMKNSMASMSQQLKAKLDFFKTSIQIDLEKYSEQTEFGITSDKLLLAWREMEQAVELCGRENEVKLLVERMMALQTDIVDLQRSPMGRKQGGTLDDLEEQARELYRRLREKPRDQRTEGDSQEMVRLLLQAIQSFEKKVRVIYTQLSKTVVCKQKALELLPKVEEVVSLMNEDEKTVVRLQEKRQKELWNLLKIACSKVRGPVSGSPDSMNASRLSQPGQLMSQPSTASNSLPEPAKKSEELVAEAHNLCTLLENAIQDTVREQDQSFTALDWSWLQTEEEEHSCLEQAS
Method: The ability of compounds to inhibit IKKβ kinase activity was measured in an assay performed by Invitrogen (Paisley, UK). The Z′-LYTE™ biochemical assay employs a fluorescence-based, coupled-enzyme format and is based on the differential sensitivity of phosphorylated and non-phosphorylated peptides to proteolytic cleavage. The peptide substrate is labelled with two fluorophores—one at each end—that make up a FRET pair. In the primary reaction, the kinase transfers the gamma-phosphate of ATP to a single serine or threonine residue in a synthetic FRET-peptide. In the secondary reaction, a site-specific protease recognizes and cleaves non-phosphorylated FRET-peptides. Phosphorylation of FRET-peptides suppresses cleavage by the Development Reagent. Cleavage disrupts FRET between the donor (i.e., coumarin) and acceptor (i.e. fluorescein) fluorophores on the FRET-peptide, whereas uncleaved, phosphorylated FRET-peptides maintain FRET. A […] method, which calculates the ratio (the Emission Ratio) of donor emission to acceptor emission after excitation of the donor fluorophore at 400 nm, is used to quantitate reaction progress.
The final 10 μL Kinase Reaction consists of 0.9-8.0 ng IKBKB (IKKβ), 2 μM Ser/Thr 05 Peptide and ATP in 50 mM HEPES pH 7.5, 0.01% BRIJ-35, 10 mM MgCl2, 1 mM EGTA. The assay is performed at an ATP concentration at, or close to the Km. After the 60 minute Kinase Reaction incubation at room temperature, 5 μL of a 1:128 dilution of Development Reagent is added. The assay plate is incubated for a further 60 minutes at room temperature and read on a fluorescence plate reader.
Duplicate data points are generated from a ⅓ log dilution series of a stock solution of test compound in DMSO. Nine dilutions steps are made from a top concentration of 10 μM, and a ‘no compound’ blank is included. Data is collected and analysed using XLfit software from IDBS. The dose response curve is curve fitted to model number 205 (sigmoidal dose-response model). From the curve generated, the concentration giving 50% inhibition is determined and reported.

[2] = test system: THP-1 cells; assay: LPS-stimulation of THP-1 cells, TNF-α release; type: cell-based; settings: Homo sapiens, LPS 1 μg/ml, 6 hrs, inhibitor added 2 hrs before, read-out: Inhibitor activity versus THP-1 TNFα release
Method: LPS-Stimulation of THP-1 Cells
THP-1 cells were plated in 100 μl at a density of 4×10^4 cells/well in V-bottomed 96 well tissue culture treated plates and incubated at 37° C. in 5% CO2 for 16 hrs. 2 hrs after the addition of the inhibitor in 100 μl of tissue culture media, the cells were stimulated with LPS (E coli strain 005:B5, Sigma) at a final concentration of 1 μg/ml and incubated at 37° C. in 5% CO2 for 6 hrs. TNF-α levels were measured from cell-free supernatants by sandwich ELISA (R&D Systems #QTA00B)

In the case of `NC(=O)Nc1sc(-c2ccc(OCC[C@H](N)C(=O)OC3CCCC3)cc2)cc1C(N)=O` [Example 2, Cyclopentyl O-{4-[4-carbamoyl-5-(carbamoylamino)-2-thienyl]phenyl}-L-homoserinate], the IC50 [1] is reported as < 1000 nM and the IC50 [2] is reported as 1000 to 5000 nM.
In the case of `NC(=O)Nc1sc(-c2ccc(OCCC[C@@H](N)C(=O)OC3CCCC3)cc2)cc1C(N)=O` [Example 4, Cyclopentyl 5-{4-[4-carbamoyl-5-(carbamoylamino)-2-thienyl]phenoxy}-D-norvalinate], the IC50 [1] is reported as < 1000 nM and the IC50 [2] is reported as 1000 to 5000 nM.
In the case of `NC(=O)Nc1sc(-c2ccc(CCC[C@@H](N)C(=O)OC3CCCC3)cc2)cc1C(N)=O` [Example 12, Cyclopentyl 5-{4-[4-carbamoyl-5-(carbamoylamino)-2-thienyl]phenyl}-D-norvalinate], the IC50 [1] is reported as < 1000 nM and the IC50 [2] is reported as < 1000 nM.
`NC(=O)Nc1sc(-c2ccc(COCC[C@H](N)C(=O)OC3CCCC3)cc2)cc1C(N)=O` [Example 17, Cyclopentyl O-{4-[4-carbamoyl-5-(carbamoylamino)-2-thienyl]benzyl}-L-homoserinate] was tested, and the IC50 [1] was < 1000 nM and the IC50 [2] was 1000 to 5000 nM.
In the case of `NC(=O)Nc1sc(-c2ccc(OCC[C@H](NC3CCCCC3)C(=O)OC3CCCC3)cc2)cc1C(N)=O` [Example 19, Cyclopentyl O-{4-[4-carbamoyl-5-(carbamoylamino)thiophen-2-yl]phenyl}-N-cyclohexyl-L-homoserinate], the IC50 [1] is reported as < 1000 nM and the IC50 [2] is reported as > 5000 nM.
In the case of `NC(=O)Nc1sc(-c2ccc(/C=C/C[C@@H](NC3CCCCC3)C(=O)OC3CCCC3)cc2)cc1C(N)=O` [Example 20, Cyclopentyl (2R,4E)-5-{4-[4-carbamoyl-5-(carbamoylamino)thiophen-2-yl]phenyl}-2-(cyclohexylamino)pent-4-enoate], the IC50 [1] is reported as < 1000 nM and the IC50 [2] is reported as 1000 to 5000 nM.
`NC(=O)Nc1sc(-c2ccc(OCC[C@@H](N)C(=O)O)cc2)cc1C(N)=O` [Example 25, O-{4-[4-Carbamoyl-5-(carbamoylamino)-2-thienyl]phenyl}-D-homoserine] was tested, and the IC50 [1] was < 1000 nM.
In the case of `NC(=O)Nc1sc(-c2ccc(OCCC[C@H](N)C(=O)O)cc2)cc1C(N)=O` [Example 27, 5-{4-[4-carbamoyl-5-(carbamoylamino)-2-thienyl]phenoxy}-L-norvaline], the IC50 [1] is reported as < 1000 nM.
In the case of `NC(=O)Nc1sc(-c2ccc(OCCC[C@@H](N)C(=O)O)cc2)cc1C(N)=O` [Example 28, 5-{4-[4-carbamoyl-5-(carbamoylamino)-2-thienyl]phenoxy}-D-norvaline], the IC50 [1] is reported as < 1000 nM.
In the case of `Cc1cc(OCC[C@H](N)C(=O)O)ccc1-c1cc(C(N)=O)c(NC(N)=O)s1` [Example 29, O-{4-[4-carbamoyl-5-(carbamoylamino)-2-thienyl]-3-methylphenyl}-L-homoserine], the IC50 [1] is reported as < 1000 nM.
In the case of `Cc1cc(-c2cc(C(N)=O)c(NC(N)=O)s2)ccc1OCC[C@H](N)C(=O)O` [Example 30, O-{4-[4-carbamoyl-5-(carbamoylamino)-2-thienyl]-2-methylphenyl}-L-homoserine], the IC50 [1] is reported as < 1000 nM.
`NC(=O)Nc1sc(-c2ccc(OCC[C@H](N)C(=O)O)cc2Cl)cc1C(N)=O` [Example 31, O-{4-[4-carbamoyl-5-(carbamoylamino)-2-thienyl]-3-chlorophenyl}-L-homoserine] was tested, and the IC50 [1] was < 1000 nM.
`NC(=O)Nc1sc(-c2ccc(OCC[C@H](N)C(=O)O)c(Cl)c2)cc1C(N)=O` [Example 32, O-{4-[4-carbamoyl-5-(carbamoylamino)-2-thienyl]-2-chlorophenyl}-L-homoserine] was tested, and the IC50 [1] was < 1000 nM.
With `NC(=O)Nc1sc(-c2ccc(/C=C/C[C@H](N)C(=O)O)cc2)cc1C(N)=O` [Example 33, (2S,4E)-2-amino-5-{4-[4-carbamoyl-5-(carbamoylamino)-2-thienyl]phenyl}pent-4-enoic acid] the IC50 [1] was < 1000 nM.
With `NC(=O)Nc1sc(-c2ccc(/C=C/C[C@@H](N)C(=O)O)cc2)cc1C(N)=O` [Example 34, (2R,4E)-2-amino-5-{4-[4-carbamoyl-5-(carbamoylamino)-2-thienyl]phenyl}pent-4-enoic acid] the IC50 [1] was < 1000 nM.
For `NC(=O)Nc1sc(-c2ccc(CCC[C@H](N)C(=O)O)cc2)cc1C(N)=O` [Example 35, 5-{4-[4-carbamoyl-5-(carbamoylamino)-2-thienyl]phenyl}-L-norvaline], the IC50 [1] was < 1000 nM.
In the case of `NC(=O)Nc1sc(-c2ccc(CCC[C@@H](N)C(=O)O)cc2)cc1C(N)=O` [Example 36, 5-{4-[4-carbamoyl-5-(carbamoylamino)-2-thienyl]phenyl}-D-norvaline], the IC50 [1] is reported as < 1000 nM.
For `NC(=O)Nc1sc(-c2ccc(/C=C/C[C@H](N)C(=O)O)cc2Cl)cc1C(N)=O` [Example 37, (2S,4E)-2-amino-5-{4-[4-carbamoyl-5-(carbamoylamino)-2-thienyl]-3-chlorophenyl}pent-4-enoic acid], the IC50 [1] was < 1000 nM.
`Cc1cc(-c2cc(C(N)=O)c(NC(N)=O)s2)ccc1/C=C/C[C@H](N)C(=O)O` [Example 38, (2S,4E)-2-amino-5-{4-[4-carbamoyl-5-(carbamoylamino)-2-thienyl]-2-methylphenyl}pent-4-enoic acid] was tested, and the IC50 [1] was < 1000 nM.
For `NC(=O)Nc1sc(-c2ccc(C#CC[C@H](N)C(=O)O)cc2)cc1C(N)=O` [Example 39, (2S)-2-amino-5-{4-[4-carbamoyl-5-(carbamoylamino)-2-thienyl]phenyl}pent-4-ynoic acid], the IC50 [1] was < 1000 nM.
With `NC(=O)Nc1sc(-c2ccc(C[C@H](N)C(=O)O)cc2)cc1C(N)=O` [Example 40, 4-[4-carbamoyl-5-(carbamoylamino)-2-thienyl]-L-phenylalanine] the IC50 [1] was < 1000 nM.
With `NC(=O)Nc1sc(-c2ccc(COCC[C@H](N)C(=O)O)cc2)cc1C(N)=O` [Example 41, O-{4-[4-carbamoyl-5-(carbamoylamino)-2-thienyl]benzyl}-L-homoserine] the IC50 [1] was < 1000 nM.
`NC(=O)Nc1sc(-c2ccc(/C=C\C[C@H](N)C(=O)O)cc2)cc1C(N)=O` [Example 42, (2S,4Z)-2-amino-5-{4-[4-carbamoyl-5-(carbamoylamino)-2-thienyl]phenyl}pent-4-enoic acid] was tested, and the IC50 [1] was < 1000 nM.
`NC(=O)Nc1sc(-c2ccc(OCC[C@H](NC3CCCCC3)C(=O)O)cc2)cc1C(N)=O` [Example 43, O-{4-[4-carbamoyl-5-(carbamoylamino)thiophen-2-yl]phenyl}-N-cyclohexyl-L-homoserine] was tested, and the IC50 [1] was < 1000 nM.
With `NC(=O)Nc1sc(-c2ccc(/C=C/C[C@@H](NC3CCCCC3)C(=O)O)cc2)cc1C(N)=O` [Example 44, (2R,4E)-5-{4-[4-carbamoyl-5-(carbamoylamino)thiophen-2-yl]phenyl}-2-(cyclohexylamino)pent-4-enoic acid] the IC50 [1] was < 1000 nM.
For `NC(=O)Nc1sc(-c2ccc(N(CC[C@H](N)C(=O)O)Cc3ccccc3)cc2)cc1C(N)=O` [Example 45, (2S)-2-amino-4-(benzyl{4-[4-carbamoyl-5-(carbamoylamino)thiophen-2-yl]phenyl}amino)butanoic acid], the IC50 [1] was < 1000 nM.
`NC(=O)Nc1cc(-c2ccc(OCC[C@H](N)C(=O)O)cc2)sc1C(N)=O` [Example 46, O-{4-[5-carbamoyl-4-(carbamoylamino)-2-thienyl]phenyl}-L-homoserine] was tested, and the IC50 [1] was < 1000 nM.
`NC(=O)Nc1cc(-c2ccc(C[C@H](N)C(=O)O)cc2)sc1C(N)=O` [Example 47, 4-[5-carbamoyl-4-(carbamoylamino)2-thienyl]-L-phenylalanine] was tested, and the IC50 [1] was < 1000 nM.
